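Growth conditions: 96-well plates. Treatment: test compound, 48 hours, 5 concentrations. Analysis: linear interpolation between bracketing concentrations; unreached endpoints set to highest concentration. Abbreviation: GI50, concentration required for 50% inhibition of growth. At the TGI there is no net growth.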
How the values were obtained:
Experiment in all cases: NCI anticancer screen, dose series, 48 h
MOLT-4 leukemia = system: MOLT-4 leukemia
NCI-H460 lung = system: NCI-H460 lung
EKVX NSCLC = system: EKVX NSCLC
HCC-2998 colon = system: HCC-2998 colon
SK-OV-3 ovarian = system: SK-OV-3 ovarian
U251 CNS = system: U251 CNS
MDA-MB-231 breast = system: MDA-MB-231 breast
SNB-19 CNS = system: SNB-19 CNS
HCT-15 colon = system: HCT-15 colon
RPMI-8226 leukemia = system: RPMI-8226 leukemia

SMILES | GI50 (MOLT-4 leukemia) | TGI (MOLT-4 leukemia) | GI50 (NCI-H460 lung) | TGI (NCI-H460 lung) | GI50 (EKVX NSCLC) | TGI (EKVX NSCLC) | GI50 (HCC-2998 colon) | TGI (HCC-2998 colon) | GI50 (SK-OV-3 ovarian) | TGI (SK-OV-3 ovarian) | GI50 (U251 CNS) | TGI (U251 CNS) | GI50 (MDA-MB-231 breast) | TGI (MDA-MB-231 breast) | GI50 (SNB-19 CNS) | TGI (SNB-19 CNS) | GI50 (HCT-15 colon) | TGI (HCT-15 colon) | GI50 (RPMI-8226 leukemia) | TGI (RPMI-8226 leukemia)
C=C/C(C)=C/C[C@]1(C)[C@H](C)[C@@H](OC(=O)CCC)[C@H](O)[C@@]23C(=C[C@H](OC)C[C@@H]12)[C@@H](OC(=O)CCC)O[C@H]3OC(C)=O | 0.348 µM | 1.55 µM | 1.74 µM | 3.52 µM | 0.987 µM | 2.61 µM | 0.238 µM | 0.71 µM | 0.266 µM | 0.806 µM | 1.32 µM | 2.98 µM | 0.857 µM | 2.45 µM | 1.66 µM | 3.58 µM | 0.34 µM | 1.29 µM | 0.341 µM | 1.65 µM
O=S1(=O)N(Cc2ccccc2)[C@@H](Cc2ccccc2)[C@H](O)[C@H](O)[C@H](Cc2ccccc2)N1Cc1ccccc1 | 2.86 µM | 10.2 µM | 3.41 µM | 7.91 µM | 3.43 µM | 9.86 µM | 3.41 µM | 6.2 µM | 4.15 µM | 10.6 µM | 3.07 µM | 6.47 µM | 2.82 µM | 6.39 µM | 4.69 µM | > 20 µM | 4.37 µM | 18.2 µM | 4.49 µM | > 20 µM
O=C(Nc1ccc(F)cc1F)c1cc(Cl)ccc1O | – | – | 1.42 µM | 19.2 µM | 1.94 µM | 8.38 µM | 2.97 µM | 9.51 µM | 0.722 µM | 4.85 µM | 1.38 µM | 16 µM | 1.74 µM | 7.48 µM | 1.45 µM | > 100 µM | 1.54 µM | 18 µM | 0.689 µM | 3.83 µM
NS(=O)(=O)c1ccc(N2N=C3c4ccccc4CC3C2c2cccs2)cc1 (centres undefined) | 18.9 µM | > 100 µM | > 100 µM | > 100 µM | 15.9 µM | 52.5 µM | 14.8 µM | 39.6 µM | 48 µM | > 100 µM | 19.4 µM | 39.6 µM | 16.8 µM | 40.8 µM | 34.4 µM | > 100 µM | 34.7 µM | > 100 µM | 32.3 µM | > 100 µM
C1=C/COCc2cc(ccc2OCCN2CCCC2)Nc2nccc(n2)-c2ccc(o2)COC/1 | 1.63 µM | 5.57 µM | 1.16 µM | 4.5 µM | 1.88 µM | 5.89 µM | 2.18 µM | 7.93 µM | 2.44 µM | 7.53 µM | 3.07 µM | 14.7 µM | 1.97 µM | 7.9 µM | 2.93 µM | 13.5 µM | 1.11 µM | 9.11 µM | 2.29 µM | 5.21 µM
O=C(/C=C/c1ccc(C(F)(F)F)cc1)Nc1ccc(C=C2c3ccccc3C(=O)c3ccccc32)cc1 | 4.65 µM | 65.1 µM | 5.48 µM | > 100 µM | 3.37 µM | > 100 µM | 8.71 µM | > 100 µM | 12.7 µM | 86.7 µM | 5.69 µM | 60.7 µM | 16 µM | > 100 µM | 8.61 µM | > 100 µM | 4.18 µM | > 100 µM | 1.15 µM | 85.9 µM
CCc1ccccc1NC(=O)/C=C/c1ccccc1 | – | > 100 µM | – | > 100 µM | – | > 100 µM | – | > 100 µM | – | > 100 µM | – | > 100 µM | – | > 100 µM | – | > 100 µM | – | > 100 µM | – | > 100 µM
CCOc1ccc(/C(C=O)=C(\Cl)c2ccc(OC)cc2)cc1 | – | > 31.6 µM | – | > 100 µM | – | > 100 µM | – | > 100 µM | – | > 100 µM | – | > 100 µM | – | > 100 µM | – | > 100 µM | – | > 100 µM | – | > 100 µM
COc1ccc(C(=O)c2cc3c(N)c(C(=O)Nc4ccccc4)sc3nc2C)cc1 | 0.796 µM | > 100 µM | 0.439 µM | 3.93 µM | 5.42 µM | > 100 µM | 1.96 µM | 55.3 µM | 0.763 µM | > 100 µM | 0.704 µM | > 100 µM | 2.43 µM | > 100 µM | 2.02 µM | > 100 µM | 0.426 µM | > 100 µM | 1.78 µM | > 100 µM
C#CCNC(=S)N/N=C(\C)c1ccccn1 | 0.126 µM | – | 0.949 µM | 5.22 µM | 0.595 µM | > 100 µM | 1.24 µM | > 100 µM | 3 µM | > 100 µM | 0.408 µM | > 100 µM | 0.292 µM | > 100 µM | 3.43 µM | > 100 µM | 0.36 µM | > 100 µM | 0.201 µM | 1.7 µM
NC(=O)[C@@H](CC1CC1)[C@@H](CCC(F)(F)F)C(=O)N[C@H]1N=C(c2ccccc2)c2cccc(F)c2NC1=O | 18.5 µM | > 100 µM | > 100 µM | > 100 µM | > 100 µM | > 100 µM | > 100 µM | > 100 µM | > 100 µM | > 100 µM | > 100 µM | > 100 µM | 18.8 µM | 42.7 µM | > 100 µM | > 100 µM | > 100 µM | > 100 µM | 27.8 µM | > 100 µM
CC[C@@]1(OC(=O)CN)C(=O)OCc2c1cc1n(c2=O)Cc2c-1nc1cc3c(cc1c2CCl)OCO3 | < 0.01 µM | – | < 0.01 µM | 4.44 µM | 1.84 µM | 26.5 µM | 0.283 µM | 3.76 µM | 0.375 µM | > 31.6 µM | 0.0185 µM | > 42.9 µM | 1.9 µM | > 34.3 µM | < 0.01 µM | 13.7 µM | 0.372 µM | 10.2 µM | 0.0374 µM | 0.597 µM
O=C1C2=C(C(=O)c3cnccc31)C1C=CC2CC1 (centres undefined) | – | – | 8.48 µM | 21.7 µM | 1.92 µM | 4.13 µM | 8.74 µM | 21.2 µM | 5.58 µM | 10.4 µM | 1.76 µM | 3.19 µM | 2.45 µM | 7.61 µM | 5.03 µM | 9.41 µM | 2.28 µM | 4.94 µM | 2.28 µM | 5.59 µM

— PubChem BioAssay (NCI)
